Here are results for four compounds from patent US20230131192A1, “1H-PYRAZOLO[4,3-d]PYRIMIDINE COMPOUNDS AS TOLL-LIKE RECEPTOR 7 (TLR7) AGONISTS” (BRISTOL-MYERS SQUIBB COMPANY, priority 2020, published 2023).

One assay concerns the target T1, human TLR7 (Homo sapiens, UniProt Q9NYK1).
T1 construct: host or cells: HEK-Blue TLR7 cells (engineered human embryonic kidney cells)
T1 sequence (Q9NYK1 27-1049): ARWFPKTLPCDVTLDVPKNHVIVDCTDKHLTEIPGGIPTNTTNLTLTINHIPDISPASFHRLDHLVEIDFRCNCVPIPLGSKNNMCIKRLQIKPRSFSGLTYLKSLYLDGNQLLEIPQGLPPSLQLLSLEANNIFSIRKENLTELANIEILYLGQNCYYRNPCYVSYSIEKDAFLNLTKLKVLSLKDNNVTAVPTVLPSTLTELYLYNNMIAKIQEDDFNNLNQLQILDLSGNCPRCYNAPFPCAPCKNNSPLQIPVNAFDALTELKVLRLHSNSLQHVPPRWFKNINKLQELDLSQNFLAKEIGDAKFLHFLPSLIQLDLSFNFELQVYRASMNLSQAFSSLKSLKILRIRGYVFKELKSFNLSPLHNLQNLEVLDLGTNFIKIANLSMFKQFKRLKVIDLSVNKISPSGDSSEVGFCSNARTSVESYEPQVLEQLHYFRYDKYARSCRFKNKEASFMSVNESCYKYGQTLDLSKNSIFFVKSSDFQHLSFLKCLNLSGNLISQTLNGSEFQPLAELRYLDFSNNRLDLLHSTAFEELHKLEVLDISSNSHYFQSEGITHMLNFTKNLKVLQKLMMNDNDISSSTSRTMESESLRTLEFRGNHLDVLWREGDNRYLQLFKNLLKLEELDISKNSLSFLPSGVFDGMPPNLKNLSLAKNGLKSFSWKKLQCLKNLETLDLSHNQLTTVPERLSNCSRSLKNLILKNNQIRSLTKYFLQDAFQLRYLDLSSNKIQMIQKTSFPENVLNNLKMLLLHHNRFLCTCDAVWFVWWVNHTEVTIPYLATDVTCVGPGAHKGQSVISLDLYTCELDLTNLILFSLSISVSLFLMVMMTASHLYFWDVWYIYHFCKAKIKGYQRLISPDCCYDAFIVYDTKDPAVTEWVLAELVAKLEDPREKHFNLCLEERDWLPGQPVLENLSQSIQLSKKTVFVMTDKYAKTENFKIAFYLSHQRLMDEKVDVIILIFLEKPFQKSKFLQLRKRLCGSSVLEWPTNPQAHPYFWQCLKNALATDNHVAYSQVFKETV
Nature of the assay: Human TLR7 agonist (reporter) activity assay, HEK-Blue TLR7 cells, SEAP reporter. The class given is cell-based. The following applies: 18 h treatment, average where assay was performed multiple times, read-out: hTLR7 Agonism EC50. Here is the method: This procedure describes a method for assaying human TLR7 (hTLR7) agonist activity of the compounds disclosed in this specification.
HEK-Blue™ TLR7 cells were added to each well of a 384-well tissue-culture plate (15,000 cells per well) and incubated 16-18 h at 37° C., 5% CO2. Compounds (100 nl) were dispensed into wells containing the HEK-Blue™ TLR cells and the treated cells were incubated at 37° C., 5% CO2. After 18 h treatment ten microliters of freshly-prepared Quanti-Blue™ reagent (Invivogen) was added to each well, incubated for 30 min (37° C., 5% CO2) and SEAP levels measured using an Envision plate reader (OD=620 nm). The half maximal effective concentration values (EC50; compound concentration which induced a response halfway between the assay baseline and maximum) were calculated.

Another assay relates to CD69. Nature of the assay: Induction of CD69 in human whole blood. The class given is cell-based. The following applies: 17 hrs, CD69 surface staining, 100% set to 1 uM of resiquimod, average where assay was performed multiple times, read-out: hWB CD69 EC50. Here is the method:
The induction of Type I interferon (IFN) MX-1 genes and the B-cell activation marker CD69 are downstream events that occur upon activation of the TLR7 pathway. The following is a human whole blood assay that measures their induction in response to a TLR7 agonist.
Heparinized human whole blood was harvested from human subjects and treated with test TLR7 agonist compounds at 1 mM. The blood was diluted with RPMI 1640 media and Echo was used to predot 10 nL per well giving a final concentration of 1 uM (10 nL in 10 uL of blood). After mixing on a shaker for 30 sec, the plates were covered and placed in a 37° C. chamber for o/n=17 hrs. Fixing/lysis buffer was prepared (5×→1× in H2O, warm at 37° C.; Cat # BD 558049) and kept the perm buffer (on ice) for later use.
For surface markers staining (CD69): prepared surface Abs: 0.045 ul hCD14-FITC (ThermoFisher Cat # MHCD1401)+0.6 ul hCD19-ef450 (ThermoFisher Cat #48-0198-42)+1.5 ul hCD69-PE (cat # BD555531)+0.855 ul FACS buffer. Added 3 ul/well, spin1000 rpm for 1 min and mixed on shaker for 30 sec, put on ice for 30 mins. Stop stimulation after 30 minutes with 70 uL of prewarmed 1× fix/lysis buffer and use Feliex mate to resuspend (15 times, change tips for each plate) and incubate at 37 C for 10 minutes.
Centrifuge at 2000 rpm for 5 minutes aspirate with HCS plate washer, mix on shaker for 30 sec and then wash with 70 uL in dPBS and pelleted 2×s (2000 rpm for 5 min) and 50 ul wash in FACS buffer pelleted 1×s(2000 rpm for 5 min). Mix on shaker for 30 sec. For Intracellular markers staining (MX-1): Add 50 ul of BD Perm buffer III and mix on shaker for 30 sec. Incubate on ice for 30 minutes (in the dark). Wash with 50 uL of FACS buffer 2× (spin @2300 rpm×5 min after perm) followed by mixing on shaker for 30 sec. Resuspended in 20 ul of FACS buffer containing MX1 antibody ( )(4812)-Alexa 647: Novus Biologicals #NBP2-43704AF647) 20 ul FACS bf+0.8 ul hlgG+0.04 ul MX-1. Spin 1000 rpm for 1 min, mix on shaker for 30se and the samples were incubated at RT in the dark for 45 minutes followed by washing 2×FACS buffer (spin @2300 rpm×5 min after perm). Resuspend 20 ul (35 uL total per well) of FACS buffer and cover with foil and place in 4° C. to read the following day. Plates were read on iQuePlus. The results were loaded into toolset and […] curves are generated in curve master. The y-axis 100% is set to 1 uM of resiquimod.

For orientation: EC50 means the concentration needed to bring the measured effect to its halfway point.

Consider `COc1cc(CN2CCN(CCO)CC2)ccc1Cn1ncc2nc(N)nc(NCc3noc(C4CC4)n3)c21` [Compound 128, 2-[4-({4-[(5-amino-7-{[(5-cyclopropyl-1,2,4-oxadiazol-3-yl)methyl]amino}-1H-pyrazolo[4,3-d]pyrimidin-1-yl)methyl]-3-methoxyphenyl}methyl)piperazin-1-yl]ethan-1-ol], for which the half-maximal effective concentration (EC50) at human TLR7 came to 33.7 nM; in the assay with CD69, 7.5 nM.
For `COc1cc(CN2CCN(C)CC2)ccc1Cn1ncc2nc(N)nc(NCc3noc(C4CC4)n3)c21` [Compound 129, N7-[(5-cyclopropyl-1,2,4-oxadiazol-3-yl)methyl]-1-({2-methoxy-4-[(4-methylpiperazin-1-yl)methyl]phenyl}methyl)-1H-pyrazolo[4,3-d]pyrimidine-5,7-diamine] the same measures were 47.8 nM and 5.3 nM.
On to `COc1cc(CNC2CCOCC2)cnc1Cn1ncc2nc(N)nc(NCc3noc(C)n3)c21` [Compound 130, 1-[(3-methoxy-5-{[(oxan-4-yl)amino]methyl}pyridin-2-yl)methyl]-N7-[(5-methyl-1,2,4-oxadiazol-3-yl)methyl]-1H-pyrazolo[4,3-d]pyrimidine-5,7-diamine], for which the concentration giving a half-maximal response (EC50) on human TLR7 was determined as 1350 nM; with CD69, 85 nM.
As to `COc1cc(CN2CCN(CCO)CC2)cnc1Cn1ncc2nc(N)nc(NCc3noc(C)n3)c21` [Compound 131, 2-[4-({6-[(5-amino-7-{[(5-methyl-1,2,4-oxadiazol-3-yl)methyl]amino}-1H-pyrazolo[4,3-d]pyrimidin-1-yl)methyl]-5-methoxypyridin-3-yl}methyl)piperazin-1-yl]ethan-1-ol], the concentration for a half-maximal effect (EC50) on human TLR7 came to 1000 nM; with CD69, 72.7 nM.
